Laboratory results: ChEMBL document CHEMBL1201862, “PubChem BioAssay data set” (2004)
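48-hour exposure; five concentrations; linearly interpolated endpoints. GI50 marks 50% less growth.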 The source made the active and inactive calls. Rule as the data show it: active = GI50 up to about 1.1 µM and inactive = higher.

Assays:
Test in all cases: NCI anticancer screen, dose series, 48 h
A549 = system: A549
ACHN = system: ACHN
CCRF-CEM = system: CCRF-CEM
COLO 205 = system: COLO 205
HCC 2998 = system: HCC 2998
HCT-116 = system: HCT-116
HCT-15 = system: HCT-15
HL-60 = system: HL-60
HOP-92 = system: HOP-92
HT-29 = system: HT-29
NCI-H226 = system: NCI-H226
NCI-H460 = system: NCI-H460
RPMI-8226 = system: RPMI-8226
SF-295 = system: SF-295
SK-MEL-2 = system: SK-MEL-2
SK-OV-3 = system: SK-OV-3
SNB-19 = system: SNB-19
U-251 = system: U-251
UACC-62 = system: UACC-62
UO-31 = system: UO-31

Compound | GI50 (A549) | GI50 (ACHN) | GI50 (CCRF-CEM) | GI50 (COLO 205) | GI50 (HCC 2998) | GI50 (HCT-116) | GI50 (HCT-15) [µM] | GI50 (HL-60) | GI50 (HOP-92) | GI50 (HT-29) | GI50 (NCI-H226) | GI50 (NCI-H460) | GI50 (RPMI-8226) | GI50 (SF-295) | GI50 (SK-MEL-2) | GI50 (SK-OV-3) | GI50 (SNB-19) | GI50 (U-251) | GI50 (UACC-62) | GI50 (UO-31)
O=C1CC2(CCNCC2)C(=O)N1N1CCCCC1 | > 100 µM (inactive) | > 100 µM (inactive) | > 100 µM (inactive) | > 100 µM (inactive) | > 100 µM (inactive) | > 100 µM (inactive) | > 100 | > 100 µM (inactive) | > 100 µM (inactive) | > 100 µM (inactive) | > 100 µM (inactive) | > 100 µM (inactive) | > 100 µM (inactive) | > 100 µM (inactive) | > 100 µM (inactive) | > 100 µM (inactive) | > 100 µM (inactive) | > 100 µM (inactive) | > 100 µM (inactive) | > 100 µM (inactive)
CC1CC2=C(C1)C(C1(C)C(=O)CC3C(C1=O)C3(C)C)C(C)C2=O (stereo not given) | > 100 µM (inactive) | > 100 µM (inactive) | > 100 µM (inactive) | > 100 µM (inactive) | > 100 µM (inactive) | > 100 µM (inactive) | > 100 | > 100 µM (inactive) | > 100 µM (inactive) | > 100 µM (inactive) | > 100 µM (inactive) | > 100 µM (inactive) | > 100 µM (inactive) | > 100 µM (inactive) | > 100 µM (inactive) | > 100 µM (inactive) | > 100 µM (inactive) | > 100 µM (inactive) | > 100 µM (inactive) | 99.5 µM (inactive)
CC1=CC(=O)c2ccc(C)cc2C1=O [CHIMAPHILIN] | 15.9 µM (inactive) | 7.45 µM (inactive) | 2.86 µM (inactive) | 16.3 µM (inactive) | 19.8 µM (inactive) | 4.44 µM (inactive) | 12.7 | 1.98 µM (inactive) | 1.85 µM (inactive) | 38.6 µM (inactive) | 13.8 µM (inactive) | 14.2 µM (inactive) | 1.77 µM (inactive) | 17.2 µM (inactive) | 16.2 µM (inactive) | 16.9 µM (inactive) | 16.1 µM (inactive) | 11.5 µM (inactive) | 8.18 µM (inactive) | 11.4 µM (inactive)
Cc1ccc(C)c(C2NC(=O)c3ccccc3N2)c1 (stereo not given) | 1.79 µM (inactive) | 4.83 µM (inactive) | 0.753 µM (active) | 0.703 µM (active) | 2.8 µM (inactive) | 0.601 µM (active) | 0.515 | 0.118 µM (active) | 37.2 µM (inactive) | 0.445 µM (active) | 2.95 µM (inactive) | 0.916 µM (active) | 2.11 µM (inactive) | 1.12 µM (inactive) | 1.29 µM (inactive) | 2.02 µM (inactive) | 2.1 µM (inactive) | 1.21 µM (inactive) | 1.31 µM (inactive) | 7.71 µM (inactive)
COc1ccc2nc3cccc([N+](=O)[O-])c3c(NCCO)c2c1 | 0.0198 µM (active) | 0.0105 µM (active) | 0.0479 µM (active) | 0.00527 µM (active) | 0.0146 µM (active) | 0.00178 µM (active) | 0.00594 | 0.0148 µM (active) | 0.0195 µM (active) | 0.00615 µM (active) | 0.0378 µM (active) | 0.00378 µM (active) | 0.00235 µM (active) | 0.0684 µM (active) | 0.0175 µM (active) | 0.185 µM (active) | 0.0486 µM (active) | 0.0211 µM (active) | 0.0182 µM (active) | 0.0218 µM (active)
CC1=C(Br)C(=O)c2c(O)ccc(O)c2C1=O | 1.89 µM (inactive) | 0.869 µM (active) | 0.0183 µM (active) | 0.187 µM (active) | 1.75 µM (inactive) | 0.303 µM (active) | 0.342 | 0.0306 µM (active) | 0.627 µM (active) | 0.336 µM (active) | 2.67 µM (inactive) | 1.26 µM (inactive) | 0.278 µM (active) | 1.67 µM (inactive) | 5.83 µM (inactive) | 1.85 µM (inactive) | 1.72 µM (inactive) | 1.5 µM (inactive) | 0.71 µM (active) | 0.625 µM (active)
Cc1cc(S(=O)(=O)Nc2nc3ccccc3nc2-c2cccc([N+](=O)[O-])c2)c(S)cc1Cl | 16.1 µM (inactive) | 27.8 µM (inactive) | 23.5 µM (inactive) | 16.3 µM (inactive) | 18.8 µM (inactive) | 18.8 µM (inactive) | 43 | 20.4 µM (inactive) | 17.9 µM (inactive) | 17.9 µM (inactive) | 21.4 µM (inactive) | 11 µM (inactive) | 19.2 µM (inactive) | 25.1 µM (inactive) | 21.9 µM (inactive) | 16.6 µM (inactive) | 16.5 µM (inactive) | 16.9 µM (inactive) | 12.3 µM (inactive) | 22.5 µM (inactive)
CC1=C(C(=O)Nc2ccccc2)C2(CCCCC2)C(C#N)=C(SCC(=O)Nc2ccc(Br)cc2)N1 | 3.77 µM (inactive) | 4.45 µM (inactive) | 1.46 µM (inactive) | 2.11 µM (inactive) | 2.54 µM (inactive) | 2.51 µM (inactive) | 4.23 | 3.18 µM (inactive) | 3.11 µM (inactive) | 2.45 µM (inactive) | 6.84 µM (inactive) | 3.22 µM (inactive) | 2.08 µM (inactive) | 4.2 µM (inactive) | 2.54 µM (inactive) | 8.79 µM (inactive) | 6.49 µM (inactive) | 4.51 µM (inactive) | 6.85 µM (inactive) | 1.39 µM (inactive)
O=C1NC2(CCNCC2)Oc2ccccc21 | > 100 µM (inactive) | > 100 µM (inactive) | > 100 µM (inactive) | > 100 µM (inactive) | > 100 µM (inactive) | > 100 µM (inactive) | > 100 | > 100 µM (inactive) | > 100 µM (inactive) | > 100 µM (inactive) | > 100 µM (inactive) | > 100 µM (inactive) | > 100 µM (inactive) | > 100 µM (inactive) | > 100 µM (inactive) | > 100 µM (inactive) | > 100 µM (inactive) | > 100 µM (inactive) | > 100 µM (inactive) | > 100 µM (inactive)
O=C1/C(=C/c2ccccc2)CN(C(=O)Oc2ccc(Cl)cc2)C/C1=C\c1ccccc1 | 9.33 µM (inactive) | 3.03 µM (inactive) | 1.55 µM (inactive) | 3.1 µM (inactive) | 1.51 µM (inactive) | 0.239 µM (active) | 1.17 | 0.871 µM (active) | 21.8 µM (inactive) | 1.14 µM (inactive) | 5.74 µM (inactive) | 2.44 µM (inactive) | 0.0957 µM (active) | 2.23 µM (inactive) | 11.5 µM (inactive) | 7.13 µM (inactive) | 3.31 µM (inactive) | 1.53 µM (inactive) | 2.31 µM (inactive) | 4.75 µM (inactive)
C#CCCCCC#CC1CCCC1C1=CC(=O)c2ccccc21 (stereo not given) | 13.5 µM (inactive) | 6.9 µM (inactive) | 1.5 µM (inactive) | 15.3 µM (inactive) | 12.6 µM (inactive) | 1.47 µM (inactive) | 7.24 | 1.33 µM (inactive) | 4.09 µM (inactive) | 4.5 µM (inactive) | 14.5 µM (inactive) | 15.3 µM (inactive) | 1.98 µM (inactive) | 5.25 µM (inactive) | 11.2 µM (inactive) | 15.3 µM (inactive) | 15.5 µM (inactive) | 4.43 µM (inactive) | 2.05 µM (inactive) | 8.17 µM (inactive)
NCCCN(CCCCN(CCCN)C(=O)OCc1ccccc1)C(=O)OCc1ccccc1 | > 100 µM (inactive) | > 100 µM (inactive) | 47 µM (inactive) | > 100 µM (inactive) | 50 µM (inactive) | > 100 µM (inactive) | > 100 | 29.8 µM (inactive) | 29.9 µM (inactive) | > 100 µM (inactive) | > 100 µM (inactive) | 88.9 µM (inactive) | 73.3 µM (inactive) | > 100 µM (inactive) | > 100 µM (inactive) | > 100 µM (inactive) | 81.8 µM (inactive) | > 100 µM (inactive) | 71.4 µM (inactive) | > 100 µM (inactive)
CCOC(=O)c1ccc(/N=C2\SC(=S)N(c3ccc(F)cc3)\C2=N/c2ccc(C(=O)OCC)cc2)cc1 | 41 µM (inactive) | 13.6 µM (inactive) | 6.95 µM (inactive) | 19.3 µM (inactive) | 40.7 µM (inactive) | 14.2 µM (inactive) | 4.29 | 5.78 µM (inactive) | 7.76 µM (inactive) | 30.5 µM (inactive) | 21.8 µM (inactive) | 51.9 µM (inactive) | 9.42 µM (inactive) | 48.3 µM (inactive) | 12.9 µM (inactive) | 86.9 µM (inactive) | 65.2 µM (inactive) | 20.6 µM (inactive) | 8.07 µM (inactive) | 10.8 µM (inactive)
CCC(COC(=O)CC[C@@H](NC(=O)C(C)NC(=O)C(C)OC1C(O)C(CO)OC(OCc2ccccc2)C1NC(C)=O)C(N)=O)NC1c2ccccc2Nc2cccc([N+](=O)[O-])c21 (stereo not given in full) | > 100 µM (inactive) | > 100 µM (inactive) | > 100 µM (inactive) | > 100 µM (inactive) | > 100 µM (inactive) | > 100 µM (inactive) | > 100 | > 100 µM (inactive) | > 100 µM (inactive) | > 100 µM (inactive) | > 100 µM (inactive) | 54 µM (inactive) | > 100 µM (inactive) | > 100 µM (inactive) | > 100 µM (inactive) | > 100 µM (inactive) | > 100 µM (inactive) | > 100 µM (inactive) | > 100 µM (inactive) | > 100 µM (inactive)
